According to patent publication US6727244B2, “Mammalian metabolites of a tachykinin receptor antagonist” (Merck & Co., Inc., priority 2000, dated 2004):

Assay: metabolism in primary cultures of rat hepatocytes
Type: in vitro ADME
Conditions: after 6 hr
Protocol: Hepatocytes were harvested from male Sprague-Dawley rat livers or human livers and cultured on a matrigel support and treated with 0.1 μM dexamethasone or 50 μM rifampicin, respectively, for 48 hr prior to the addition of the test compounds. A 2.5 mM stock solution of [^14C]2-(R)-(1-(R)-(3,5-bis(trifluoromethyl)-phenyl)ethoxy)-3-(S)-(4-fluoro)phenyl-4-(3-(5-oxo-1H,4H-1,2,4-triazolo)methylmorpholine, [^14C]M-1 or [^14C]M-2 in DMSO was added to the plates such that the final concentration of test compound was 25 μM and DMSO was 1% (v/v). The cultures were incubated for 4, 6 or 24 hr for rat hepatocytes and 48 hr for human hepatocytes. The incubation mixtures (500 μL) contained 10 μM of test compound, 100 mM phosphate buffer pH 7.4, NADPH-regenerating system, microsomes containing expressed CYP isoforms (CYP1A2, CYP2A6, CYP2B6, CYP2C8, CYP2C9, CYP2C19, CYP2D6, CYP2E1 or CYP3A4) and cytochrome P-450 reductase. The reactions were initiated by adding NADP and proceeded at 37° C. for 15-45 min. […]
Method A was conducted on a Shimadzu HPLC system (Shimadzu Scientific Instruments Inc., Columbia Md.). The parent compounds and their metabolites were monitored directly using a radiometric detector (INUS Systems Inc. Tampa, Fla.) and Ultima-Flow M (Packard Instrument Co., Meridan Conn.) as scintillant at a flow rate of 3 mL/min. […]

metabolism in rat hepatocyte cultures: extensively metabolized
SMILES: C[C@@H](O[C@H]1OCCN[C@H]1c1ccc(F)cc1)c1cc(C(F)(F)F)cc(C(F)(F)F)c1 [Metabolite M-1, (2R,3S)-2-[(1R)-1-[3,5-bis(trifluoromethyl)phenyl]ethoxy]-3-(4-fluorophenyl)morpholine]
